Values joined by “and” are separate entries in the source; they are usually repeats but may differ in a detail not shown here. Equal entries are not always repeated. Structures can show the parent of a compound that is named as a salt. Where two headings read alike, the source gives them in different places.
Assays:
[1] = tested on: p53 signaling (p53RE-bla HCT-116 cells); assay: cells; type: cell-based; details: for EC50 / Emax: Homo sapiens
[2] = tested on: p53 signaling (p53RE-bla HCT-116 cells)
[3] = tested on: p53 signaling (p53RE-bla HCT-116 cells); remark: listed apart in the source
[4] = tested on: p53RE-bla HCT-116 cells
[5] = tested on: p53RE-bla HCT-116 cells; assay: cells; details: Homo sapiens
[6] = HCT-116, read-out: p53 activation EC50, cherry pick confirmation
[7] = HCT-116, read-out: p53 activation EC50, primary screening
[8] = HCT-116, read-out: p53 activation efficacy, cherry pick confirmation
[9] = HCT-116, read-out: p53 activation efficacy, primary screening
[10] = HCT-116, read-out: Viability EC50, cherry pick confirmation
[11] = HCT-116, read-out: Viability EC50, primary screening
[12] = read-out: Viability EC50, primary screening

## Oc1ccc(C(c2ccc(O)cc2)(C(F)(F)F)C(F)(F)F)cc1 [Bisphenol AF]
[1]; HCT-116, read-out: EC50, p53 activation, cherry pick confirmation
  EC50: 31.7 µM
[1]; HCT-116, read-out: EC50, p53 activation, primary screening
  EC50: 28.9 µM
[1]; HCT-116, read-out: Efficacy, p53 activation, cherry pick confirmation
  Emax: 55.4%
[1]; HCT-116, read-out: Efficacy, p53 activation, primary screening
  Emax: 33.6%
[2]
  EC50, p53 activation, cherry pick confirmation: inactive
  EC50, p53 activation, primary screening: inactive
  Efficacy, p53 activation, cherry pick confirmation: inactive
  Efficacy, p53 activation, primary screening: inactive
[3]
  EC50, p53 activation, cherry pick confirmation: inactive
  EC50, p53 activation, primary screening: inactive
  Efficacy, p53 activation, cherry pick confirmation: inactive
  Efficacy, p53 activation, primary screening: inactive
[4]
  EC50, viability, cherry pick confirmation: inactive
  EC50, viability, primary screening: inactive
  Efficacy, viability, cherry pick confirmation: inactive
[4]; read-out: EC50, viability, primary screening
  EC50: 47.6 µM
[5]; HCT-116, read-out: EC50, viability, primary screening
  EC50: 47.4 µM

## CC(C)C[C@H](NC(=O)[C@H](Cc1ccccc1)NC(=O)c1cnccn1)B(O)O [Bortezomib]
[1]; [6]
  EC50: 0.101 µM
[1]; [7]
  EC50: 0.0122 µM
[1]; [8]
  Emax: 134%
[1]; [9]
  Emax: 104%
[2]
  p53 activation EC50, cherry pick confirmation: inactive
  p53 activation EC50, primary screening: inactive
  p53 activation efficacy, cherry pick confirmation: inactive
  p53 activation efficacy, primary screening: inactive
[3]
  p53 activation EC50, cherry pick confirmation: inactive
  p53 activation EC50, primary screening: inactive
  p53 activation efficacy, cherry pick confirmation: inactive
  p53 activation efficacy, primary screening: inactive
[4]
  Viability EC50, cherry pick confirmation: inactive
  Viability EC50, primary screening: inactive
[5]; [10]
  EC50: 0.397 µM
[5]; [11]
  EC50: 0.428 µM

## CC(C)(C)[C@H]1CC[C@H](CC2=C(O)C(=O)c3ccccc3C2=O)CC1 [Buparvaquone]
[1]
  p53 activation EC50, cherry pick confirmation: inactive
  p53 activation efficacy, cherry pick confirmation: inactive
[1]; [7]
  EC50: 1.41 µM
[1]; [9]
  Emax: 33.8%
[2]
  p53 activation EC50, cherry pick confirmation: inactive
  p53 activation EC50, primary screening: inactive
  p53 activation efficacy, cherry pick confirmation: inactive
  p53 activation efficacy, primary screening: inactive
[3]
  p53 activation EC50, cherry pick confirmation: inactive
  p53 activation EC50, primary screening: inactive
  p53 activation efficacy, cherry pick confirmation: inactive
  p53 activation efficacy, primary screening: inactive
[4]
  Viability EC50, cherry pick confirmation: inactive
  Viability EC50, primary screening: inactive
  Viability efficacy, primary screening: inactive
[5]; [10]
  EC50: 1.99 µM

## CC(C)C[C@H](NC(=O)[C@H](CCc1ccccc1)NC(=O)CN1CCOCC1)C(=O)N[C@@H](Cc1ccccc1)C(=O)N[C@@H](CC(C)C)C(=O)[C@@]1(C)CO1 [Carfilzomib]
[1]; [6]
  EC50: 0.0597 µM
[1]; [7]
  EC50: 0.142 µM
[1]; [8]
  Emax: 111%
[1]; [9]
  Emax: 82%
[2]
  p53 activation EC50, cherry pick confirmation: inactive
  p53 activation EC50, primary screening: inactive
  p53 activation efficacy, cherry pick confirmation: inactive
  p53 activation efficacy, primary screening: inactive
[3]
  p53 activation EC50, cherry pick confirmation: inactive
  p53 activation EC50, primary screening: inactive
  p53 activation efficacy, cherry pick confirmation: inactive
  p53 activation efficacy, primary screening: inactive
[4]
  Viability EC50, cherry pick confirmation: inactive
  Viability EC50, primary screening: inactive
[5]; [11]
  EC50: 0.75 µM

## COc1cc(/C=C/C(=O)CC(=O)/C=C/c2ccc(O)c(OC)c2)ccc1O [Curcumin]
[1]
  p53 activation EC50, cherry pick confirmation: inactive
  p53 activation efficacy, cherry pick confirmation: inactive
[1]; [7]
  EC50: 15.4 µM
[1]; [9]
  Emax: 65.1%
[2]
  p53 activation EC50, cherry pick confirmation: inactive
  p53 activation EC50, primary screening: inactive
  p53 activation efficacy, cherry pick confirmation: inactive
  p53 activation efficacy, primary screening: inactive
[3]
  p53 activation EC50, cherry pick confirmation: inactive
  p53 activation EC50, primary screening: inactive
  p53 activation efficacy, cherry pick confirmation: inactive
  p53 activation efficacy, primary screening: inactive
[4]
  Viability EC50, cherry pick confirmation: inactive
[4]; [12]
  EC50: 38 µM and 46.9 µM
[5]; [10]
  EC50: 16.3 µM
[5]; [11]
  EC50: 31.7 µM

## CCOC(=O)C1(c2ccccc2)CCN(CCC(C#N)(c2ccccc2)c2ccccc2)CC1 [Diphenoxylate hydrochloride]
[1]; [6]
  EC50: 8.23 µM
[1]; [7]
  EC50: 6.87 µM
[1]; [8]
  Emax: 152%
[1]; [9]
  Emax: 77.1%
[2]
  p53 activation EC50, cherry pick confirmation: inactive
  p53 activation EC50, primary screening: inactive
  p53 activation efficacy, cherry pick confirmation: inactive
  p53 activation efficacy, primary screening: inactive
[3]
  p53 activation EC50, cherry pick confirmation: inactive
  p53 activation EC50, primary screening: inactive
  p53 activation efficacy, cherry pick confirmation: inactive
  p53 activation efficacy, primary screening: inactive
[4]
  Viability EC50, cherry pick confirmation: inactive
  Viability EC50, primary screening: inactive
  Viability efficacy, primary screening: inactive
[5]; [10]
  EC50: 3.16 µM

## Oc1ccc(Cl)cc1Sc1cc(Cl)ccc1O [Fenticlor]
[1]; [6]
  EC50: 18.1 µM
[1]; [7]
  EC50: 34.2 µM
[1]; [8]
  Emax: 54.9%
[1]; [9]
  Emax: 52.2%
[2]
  p53 activation EC50, cherry pick confirmation: inactive
  p53 activation EC50, primary screening: inactive
  p53 activation efficacy, cherry pick confirmation: inactive
  p53 activation efficacy, primary screening: inactive
[3]
  p53 activation EC50, cherry pick confirmation: inactive
  p53 activation EC50, primary screening: inactive
  p53 activation efficacy, cherry pick confirmation: inactive
  p53 activation efficacy, primary screening: inactive
[4]
  Viability EC50, primary screening: inactive
[4]; [12]
  EC50: 18.7 µM
[5]; [11]
  EC50: 27.7 µM
